Several values for one entry are separate records, joined by “and”; a condition that tells them apart may be missing. Equal values may be shown once.

These results are taken from patent US5162328A, “N-[3-[2-(1H-imidazol-1-yl)ethoxy]phenyl]-4-(2-thienyl)-2-pyrimidinamine and pharmacologically acceptable salts” (American Cyanamid Company, priority 1991, dated 1992).

For assay [1], the system named is immunologically stimulated human basophils. The assay can be described thus: Inhibition of histamine release from immunologically stimulated human basophils. Format: cell-based. As to conditions: Homo sapiens. From the text:
The bronchospasm of allergic asthma is a consequence of the release of mediators, such as histamine and slow-reacting substances from mast cells. The role of mediator release in the induction of an asthmatic attack has been fully reviewed and documented; see […]. and Austen, K. F., Bronchial Asthma Mechanisms and Therapeutics, E. B. Weiss, Editor, Little, Brown and Company, Boston, 163, (1976); Lichtenstein, L. M., Asthma-Physiology, Immunopharmacology and Treatment, Second International Symposium, L. M. Lichtenstein and K. F. Austen, Editors, Academic Press, New York, 51, (1979); and Bell, S. C., et al., Annular Reports in Medicinal Chemistry, 14, 51, H. J. Hess, Editor, Academic Press, New York, (1979). The novel compounds of this invention have been tested by the procedure of Lichtenstein, L. M. and Osler, A. G., J. Exp. […] Dissolve 140.3 g of sodium chloride, 7.45 g of Trizma-Tris Pre-Set, Reagent Grade, pH 7.6 at 25° C. (Sigma Chemical Co.) in sufficient water to give a final volume of 2 liters. (Sigma chemical Co.) (30 mg/ml) Made to 0.075M and 0.5M respectively, with calcium chloride dihydrate and magnesium chloride hexahydrate. A 10 ml portion of 10× Tris Buffer and 1.0 ml of human albumin are diluted to 100 ml with water. A 10 ml portion of 10× Tris Buffer, 1.0 ml of human albumin, 0.8 ml of calcium stock and 0.2 ml of magnesium stock are diluted to 100 ml with water. Behring Diagnostics (Generally used at 10 μg protein/ml final concentration). Strength 1:100 (w:v) allergenic extract, Hollister-Stier Labs. Generally this is diluted 1:1000 to 1:10,000 (considering the vial as stock). Interdermal solutions or intramuscular preparations for hyposensitization, Hollister-Stier Labs. The final concentrations used are on the order of 1 PNU/ml. Using four 20 ml heparinized tubes, […] of blood are withdrawn from subjects with known histamine release to anti-IgE, ragweed antigen or other specific allergen. These 80 ml of blood are mixed with 20 ml of saline containing 0.6 g of dextrose and 1.2 g of dextran. The blood is allowed to sediment at room temperature in two 50 ml polycarbonate centrifuge tubes until a sharp interface develops between the red cells and plasma (60-90 minutes). The plasma, containing the leukocytes, (top) layer from each tube, is withdrawn by pipet and transferred to 50 ml polycarbonate tubes. The plasma is centrifuged for 8 minutes at 110× G at 4° C. The supernatant is carefully poured off as completely as possible and the cell button is resuspended in 2-3 ml of Tris-A buffer using a siliconized Pasteur pipet. The resuspension is accomplished by drawing the liquid gently in an out of the pipet, with the tip below the liquid until an even suspension of cells is obtained. […]

In assay [2] the test system is passive cutaneous anaphylaxis lesions in the rat. Put plainly: Rat Passive Cutaneous Anaphylaxis Assay (PCA). As to conditions: for Lesion Area (Low IgE): IgE 25 ng/site; for Lesion Area (Low IgE) / Lesion Area (High IgE): mean ± SD; for Lesion Area (High IgE): IgE 50 ng/site. Format: in vivo, rat (male Wistar strain). On the procedure:
Solutions made by dissolving 0.50 g in 100 ml of normal saline. Mouse monoclonal IgE (ICN Biochemicals) clone SPE-7 directed against DNP is subdivided into 50 ul aliquots and stored at -70° C. DNP-ovalbumin is made by reacting DNP sulfonic acid with ovalbumin dissolved in saline overnight at room temperature. The resulting solution is dialyzed extensively at 4 C to remove unreacted DNPsulfonic acid and stored as 1 mL aliquots of 100 mg/ml at -70° C. Male Wistar strain rats, certified viral free, weighing 250-300 g are obtained from Hilltop Laboratory Animals and housed, in accordance with AALAC standards, on site for at least one week before use. Forty-eight hours before challenge the rats are shaved on the dorsal surfaces and returned to the cages. Twenty-four hours before challenge the rats are given intradermal injections of 0.1 mL, one on each flank, of saline containing IgE at concentrations ranging from 1000 to 250 ng/mL. These injections give a local dose of 100 to 25 ng IgE. The IgE binds to specific receptors on mast cells in the skin. […] To the Evan's blue dye is added sufficient DNP-ovalbumin to make a 1 mg/ml solution. This allergen containing dye is injected intravenously via a tail vein into the rats at 10 ml/Kg. The Evans' blue binds to plasma albumin and remains in the vascular space under conditions of normal capillary permeability. The allergen, which can diffuse into the extravascular space, binds to the IgE on the surface of the cutaneous mast cells and initiates the immediate hypersensitivity response which leads to the release of histamine by intracellular granules of the mast cell. The histamine causes an increase in capillary permeability which allows plasma proteins including the dye tagged albumin to diffuse into the extracellular space resulting in a blue spot in the skin. The size of the lesion is proportional to the amounts of mediators released. This process reaches an optimum in 30 minutes. Thirty minutes after challenge the rats are euthanized by CO2. The skin is reflected from the back and the lesion areas estimated as the product of the largest diameter of the bluespot and the diameter perpendicular to it. A compound which is a mediator release inhibitor will reduce the spot area. The effectiveness of the compounds is determined by Analysis of Variance of the lesion areas grouped by IgE dose and compound. Compounds are considered active at the P<0.05 level. Table II contains the results of the experiments expressed as the areas of the lesions in mm^2. The control lesions for these experiments are also listed. Because more than one compound at a time is tested, some of the control values are repeated in the table. Table III contains the data expressed as a % of the appropriate control.

Where [3] appears, read: 2.0 mg/kg PO 2 hrs, hydrochloride.

As a reminder, the IC50 is the concentration at which inhibition is half-maximal. The low end stands for higher potency, the high end for lower potency. `Cl.c1cc(Nc2nccc(-c3cccs3)n2)cc(OCCn2ccnc2)c1` [Compound 1, N-[3-[2-(1H-Imidazol-1-yl)ethoxy]phenyl]-4-(2-thienyl)-2-pyrimidinamine hydrochloride] yielded an IC50 in assay [1] of 100 ± 10 nM. The “Lesion Area (Low IgE)” value in assay [2] (0.125 mg/kg PO 2 hrs) is 87 ± 16 mm^2; in assay [2] (0.25 mg/kg PO 2 hrs), 92 ± 13 mm^2; in assay [2] (1.5 mg/kg PO 2 hrs), 56 ± 22 mm^2; in assay [2] (setting [3]), 71 ± 20 mm^2 and 76 ± 14 mm^2; in assay [2] (2.5 mg/kg PO 2 hrs), 8 ± 15 mm^2. In addition, the “Lesion Area (High IgE)” value was 132 ± 20 mm^2 in assay [2] (0.125 mg/kg PO 2 hrs); 127 ± 19 mm^2 in assay [2] (0.25 mg/kg PO 2 hrs); 115 ± 14 mm^2 and 100 ± 20 mm^2 and 129 ± 26 mm^2 in assay [2] (1.0 mg/kg PO 2 hrs, hydrochloride); 128 ± 43 mm^2 in assay [2] (1.5 mg/kg PO 2 hrs); 103 ± 5 mm^2 and 119 ± 19 mm^2 in assay [2] (setting [3]); 17 ± 30 mm^2 in assay [2] (2.5 mg/kg PO 2 hrs). For the same molecule, the “% CONTROL (lesion area)” value in assay [2] (1.5 mg/kg PO @ 2 hrs) was 41.8%; in assay [2] (2 mg/kg PO @ 2 hrs, hydrochloride), 56.8% and 43.3%; in assay [2] (2.5 mg/kg PO @ 2 hrs), 15.0%.
